Test results from US7109214B2, “Substituted cyclopentene compounds” (Grunenthal GmbH, priority 2004, dated 2006).
Where a name gives a salt, the structure may show the parent alone. Read-outs that look alike come from different tables or passages of the source.

Key:
[1] = biological target: T1, endogenous CGRP receptors in SK-N-MC cells (Homo sapiens, UniProt O60894+Q16602); assay: Action on the formation of cAMP in the human neuroblastoma cell line SK-N-MC; format: cell-based; details: at 1 nM CGRP, compounds used in 10 μM concentrations
T1 construct: host or cells: SK-N-MC human neuroblastoma cells
Source text: The corresponding description is hereby introduced as a reference and is deemed to be part of the disclosure.

[2] = biological target: T2, human calcitonin receptor-related receptor (CRLR) and human RAMP1 (Homo sapiens, UniProt O60894+Q16602); assay: GTPγS assay: CGRP-induced [35S]GTPγS incorporation into CHO-K1 membranes; format: biochemical
T2 construct: purchased Euroscreen, Brussels, Belgium; host or cells: CHO-K1 cells (transfected), membranes
Procedure: The antagonistic action of the substituted cyclopentene compounds according to the invention was determined using this assay.
To this end, membranes from CHO-K1 cells (Euroscreen, Brussels, Belgium), which are transfected with the human calcitonin receptor-related receptor (CRLR, Genbank: U17473) and human receptor-associated modifying protein type 1 (RAMP1, Genbank AJ001014), are first of all rapidly thawed, diluted in 20 mM HEPES, 10 mM NaCl, 10 mM MgCl2, 1 mM EDTA pH 7.4 and resuspended by homogenisation. […] After 30 minutes' incubation at room temperature, 50 μl of 2 nM [35S]GTPγS (Amersham) are added and incubated for a further 30 minutes at room temperature and the assay-plate is centrifuged for 10 minutes at 3200 revolutions per minute. Bound activity was determined with a Wallac 1450 Microbeta Scintillation Counter (Wallac, Torku, Finland).
The inhibition of CGRP-induced incorporation of [^35S]GTPγS into membranes was determined in accordance with the above-described method.

[3] = biological target: T3, recombinant human CGRP1 receptor (CRLR and RAMP1) (Homo sapiens, UniProt O60894+Q16602); assay: Inhibition of binding of 3-[125I]-iodohistidyl10-α-CGRP to the human CGRP1 receptor (SPA); details: read-out: Inhibition in % of binding of 3-[125I]-iodohistidyl10 CGRP; at a concentration of 10 μM of the particular compound
T3 construct: purchased Euroscreen, Belgium ES420-M9; host or cells: CHO-K1 cell membranes
Procedure: (A) Investigation of the Inhibition of Binding of [^125I]-α-CGRP to the Human CGRP1 Receptor
Various CGRP receptor subtypes are known which in each case consist of a complex of CRLR (Calcitonin Receptor-Like Receptor), RAMP (Receptor-Associated Membrane Protein) and RCP (Receptor Component Protein).
Investigation of the inhibition of the binding of 3-[^125I]-iodohistidyl^10-α-CGRP is carried out on a human CGRP1 receptor, which is composed of the recombinant human constituents (Calcitonin Receptor-Like Receptor) CRLR and (Receptor-Associated Membrane Protein) RAMP1 (item no. ES420-M9, Euroscreen, Belgium).
The radioligand used is 3-[^125I]-iodohistidyl^10 Calcitonin Gene-Related Peptide (Amersham pharmacia biotech, code IM 184, 2000 Ci/mmol).
The binding studies are performed as SPA (scintillation proximity assay) batches with WGA beads (wheat germ agglutinin, Amersham pharmacia biotech, code: RPNQ 0001). The incubation buffer used is 50 mm tris pH 7.4 with 120 mM NaCl, 5 mM KCl and 5 mM MgCl2. 0.25 μg of protein of membrane suspension of CHO-K1 cells, 250 μg of beads and 10 μg of albumin (BSA) and the above-stated radioligand in a concentration of […] together with the compound according to the invention to be investigated in a concentration of 10 μM are introduced into each well of a microtitre plate.
After an incubation period of 90 minutes, radioactivity is measured in a Trilux detector (Wallac, Finland).
The inhibition of binding of 3-[^125I]-iodohistidyl^10 Calcitonin Gene-Related Peptide to the recombinant human CGRP1 receptor was determined in accordance with the method described above.

CGRP1 receptors = biological target: T4, CGRP1 receptors (Cavia porcellus, UniProt H0UV86+Q8R4C6); assay: CGRP receptor affinity on isolated, spontaneously beating guinea pig atrium
T4 sequence (H0UV86 23-464): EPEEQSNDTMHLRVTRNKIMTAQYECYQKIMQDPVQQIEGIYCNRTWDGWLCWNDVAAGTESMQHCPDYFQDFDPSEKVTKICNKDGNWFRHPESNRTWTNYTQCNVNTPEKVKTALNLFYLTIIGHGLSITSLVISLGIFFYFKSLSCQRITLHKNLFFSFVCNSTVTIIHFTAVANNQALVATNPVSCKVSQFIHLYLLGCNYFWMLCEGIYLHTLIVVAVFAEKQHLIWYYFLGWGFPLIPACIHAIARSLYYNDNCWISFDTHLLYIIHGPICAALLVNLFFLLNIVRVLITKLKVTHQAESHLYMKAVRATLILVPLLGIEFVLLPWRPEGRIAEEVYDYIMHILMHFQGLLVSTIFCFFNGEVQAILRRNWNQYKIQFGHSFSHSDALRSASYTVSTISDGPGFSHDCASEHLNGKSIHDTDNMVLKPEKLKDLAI
T4 sequence (Q8R4C6 27-148): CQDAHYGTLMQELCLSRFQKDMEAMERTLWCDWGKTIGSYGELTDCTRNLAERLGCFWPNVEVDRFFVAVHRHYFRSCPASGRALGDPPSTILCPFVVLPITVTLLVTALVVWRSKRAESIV
Procedure: J. Physiol. Pharmacol. 75: 671–6,1997. The corresponding literature description is hereby introduced as a reference and is deemed to be part of the disclosure.
The exposure time for each concentration level is 2 minutes.
The validation and investigation of the substituted cyclopentene compounds according to the invention for their antagonistic action proceeded in accordance with the above-described method.

[4] = read-out: IC50 value for CGRP-antagonistic action, isolated guinea pig atria stimulated by h-α-CGRP

T2 sequence (Q16602 23-461): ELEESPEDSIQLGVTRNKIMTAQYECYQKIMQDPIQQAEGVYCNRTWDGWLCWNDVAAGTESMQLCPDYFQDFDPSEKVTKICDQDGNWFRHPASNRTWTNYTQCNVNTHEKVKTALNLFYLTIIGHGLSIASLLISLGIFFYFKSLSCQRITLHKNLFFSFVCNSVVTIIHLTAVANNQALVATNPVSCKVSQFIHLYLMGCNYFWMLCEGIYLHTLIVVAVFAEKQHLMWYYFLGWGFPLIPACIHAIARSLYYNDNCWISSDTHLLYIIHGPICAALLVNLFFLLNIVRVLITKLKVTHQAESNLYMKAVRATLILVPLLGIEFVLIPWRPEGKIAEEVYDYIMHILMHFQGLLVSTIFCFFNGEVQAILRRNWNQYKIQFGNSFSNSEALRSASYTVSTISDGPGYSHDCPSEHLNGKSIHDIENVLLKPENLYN
T2 sequence (O60894 27-148 partner): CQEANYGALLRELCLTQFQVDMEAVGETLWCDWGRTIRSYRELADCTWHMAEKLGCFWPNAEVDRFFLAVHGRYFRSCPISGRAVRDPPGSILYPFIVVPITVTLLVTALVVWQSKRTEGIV
T3 sequence (Q16602 23-461): as the sequence (Q16602 23-461) above
T3 sequence (O60894 27-148 partner): as the sequence (O60894 27-148 partner) above
T1 sequence (Q16602 23-461): as the sequence (Q16602 23-461) above
T1 sequence (O60894 27-148 partner): as the sequence (O60894 27-148 partner) above

CN(C)CC1CC(c2ccc(S(C)(=O)=O)cc2)=C(c2cccc(O)c2)C1=O.Cl (stereo not drawn) [Example 3, 5-Dimethylaminomethyl-2-(3-hydroxyphenyl)-3-(4-methanesulfonylphenyl)-cyclopent-2-enone, hydrochloride]
Inhibition of cAMP formation [1]: 86% | inhibition at 12.5 µM [2]: 65.1% | inhibition at 10 µM [3]: 66% | IC50 (CGRP1 receptors; [4]): 77 µM | melting point: 162 to 164 °C

CN(C)CC1CC(c2ccc(S(C)(=O)=O)cc2)=C(c2cc(F)cc(F)c2)C1=O.Cl (stereo not drawn) [Example 1, 2-(3,5-Difluorophenyl)-5-dimethylaminomethyl-3-(4-methanesulfonylphenyl)-cyclopent-2-enone, hydrochloride]
Inhibition of cAMP formation [1]: 71% | inhibition at 12.5 µM [2]: 65.1% | inhibition at 10 µM [3]: 40% | IC50 (CGRP1 receptors; [4]): 13 µM

CN(C)CC1CC(c2ccc(S(C)(=O)=O)cc2)=C(c2cc(Cl)cc(Cl)c2)C1=O.Cl (stereo not drawn)
melting point: 160 to 163 °C

Cc1ccc(C2=C(c3ccc(S(C)(=O)=O)cc3)CC(CN(C)C)C2=O)cc1.Cl (stereo not drawn)
melting point: 127 to 129 °C

CN(C)CC1CC(c2ccc(S(C)(=O)=O)cc2)=C(c2cccc(F)c2)C1=O.Cl (stereo not drawn) [Example 5, 5-Dimethylaminomethyl-2-(3-fluorophenyl)-3-(4-methanesulfonylphenyl)-cyclopent-2-enone, hydrochloride]
Inhibition of cAMP formation [1]: 82% | inhibition at 12.5 µM [2]: 62.4% | inhibition at 10 µM [3]: 58% | IC50 (CGRP1 receptors; [4]): 25 µM | melting point: 154 to 158 °C

Cc1cc(C2=C(c3ccc(S(C)(=O)=O)cc3)CC(CN(C)C)C2=O)ccc1F.Cl (stereo not drawn)
melting point: 95 to 98 °C (dec.)

CN(C)CC1CC(c2ccc(S(C)(=O)=O)cc2)=C(c2ccc(S(C)(=O)=O)cc2)C1=O.Cl (stereo not drawn)
melting point: 157 to 159 °C

CN(C)CC1CC(c2ccc(S(C)(=O)=O)cc2)=C(c2cccc(Cl)c2)C1=O.Cl (stereo not drawn)
melting point: 156 to 158 °C

Cc1ccc(C2=C(c3ccc(S(C)(=O)=O)cc3)CC(CN(C)C)C2=O)cc1C.Cl (stereo not drawn)
melting point: 139 to 142 °C

CC(C)c1cccc(C2=C(c3ccc(S(C)(=O)=O)cc3)CC(CN(C)C)C2=O)c1.Cl (stereo not drawn)
melting point: 131 to 133 °C

h-α-CGRP(8-37): human α-CGRP(8-37), CGRP1-antagonistic fragment used to validate the guinea pig atrium model [reference compound]
Reduction in the increase in the frequency of beating of the atria stimulated by h-α-CGRP (in words) (CGRP1 receptors; concentrations of 30, 100 and 300 nM): concentration-dependent reduction | IC50 (CGRP1 receptors; validation experiment, isolated guinea pig atria, read-out: IC50 (semimaximal action), reduction of h-α-CGRP-stimulated increase in frequency of beating): 0.019 µM

CN(C)CC1CC(c2ccc(S(C)(=O)=O)cc2)=C(c2ccc(O)cc2)C1=O.Cl (stereo not drawn)
melting point: 98 to 100 °C

COc1cccc(C2=C(c3ccc(S(C)(=O)=O)cc3)CC(CN(C)C)C2=O)c1.Cl (stereo not drawn) [Example 13, 5-Dimethylaminomethyl-3-(4-methanesulfonylphenyl)-2-(3-methoxyphenyl)-cyclopent-2-enone, hydrochloride]
Inhibition of cAMP formation [1]: 88% | inhibition at 12.5 µM [2]: 63.9% | inhibition at 10 µM [3]: 60% | IC50 (CGRP1 receptors; [4]): 32 µM | melting point: 154 to 157 °C

CN(C)CC1CC(c2ccc(S(C)(=O)=O)cc2)=C(c2ccc3c(c2)OCO3)C1=O.Cl (stereo not drawn)
melting point: 149 to 152 °C

CN(C)CC1CC(c2ccc(S(C)(=O)=O)cc2)=C(c2ccc(C(C)(C)C)cc2)C1O (stereo not drawn) [Example 21, 2-(4-tert-Butylphenyl)-5-dimethylaminomethyl-3-(4-methanesulfonylphenyl)-cyclopent-2-enol, hydrochloride]
inhibition at 10 µM [3]: 26%

CN(C)CC1CC(c2ccc(S(C)(=O)=O)cc2)=C(c2ccc3ccccc3c2)C1=O.Cl (stereo not drawn)
melting point: 163 to 165 °C

CN(C)CC1CC(c2ccc(S(C)(=O)=O)cc2)=C(c2cccc(C(F)(F)F)c2)C1=O.Cl (stereo not drawn)
melting point: 152 to 154 °C

CCOc1cccc(C2=C(c3ccc(S(C)(=O)=O)cc3)CC(CN(C)C)C2=O)c1.Cl (stereo not drawn)
melting point: 149 to 151 °C

Cc1cccc(C2=C(c3ccc(S(C)(=O)=O)cc3)CC(CN(C)C)C2=O)c1.Cl (stereo not drawn)
melting point: 148 to 150 °C

CN(C)CC1CC(c2ccc(S(C)(=O)=O)cc2)=C(c2ccc(C(C)(C)C)cc2)C1=O.Cl (stereo not drawn)
melting point: 182 to 184 °C
